Reference: US8475804B2 (priority 2009, dated 2013)
Structures can show the parent of a compound that is named as a salt. Where two headings read alike, the source gives them in different places.

How the values were obtained:
[1] = tested on: Ebola virus; assay: microbe, parasite or virus in culture; assay type: cell-based, Ebolavirus (EBOV); parameters: Max Effect HepG2: unit not given here; settings: for Emax: HepG2, read-out: Max Effect HepG2
[2] = tested on: Ebola virus; assay: microbe, parasite or virus in culture; assay type: cell-based, Ebolavirus (EBOV)
[3] = Zaire ebolavirus, HepG2, read-out: IC50 (μM) HepG2
[4] = Zaire ebolavirus, Vero, read-out: IC50 (μM) Vero
[5] = Zaire ebolavirus, Vero, read-out: Max Effect
[6] = Zaire ebolavirus, Vero, read-out: Max Effect Vero

Molecule | IC50 [1, 3] | Emax ([1]; Zaire ebolavirus) | IC50 ([2]; Zaire ebolavirus, Vero) | IC50 [2, 4] | Emax [2, 5] | Emax [2, 6] | Max Effect HepG2 [1] | IC50 ([1]; read-out: IC50 (μM) HepG2) | Max Effect [2] | Max Effect Vero [2] | IC50 ([2]; read-out: IC50) | IC50 ([2]; read-out: IC50 (μM) Vero)
CO[C@H]1C[C@H](O[C@H]2CC[C@]3(C=O)[C@H]4CC[C@]5(C)[C@@H](C6=CC(=O)OC6)CC[C@]5(O)[C@@H]4CC[C@]3(O)C2)O[C@H](C)[C@H]1O [K-Strophanthin] | 0.021 µM | 86.7% | < 0.5 µM | 0.035 µM | 90% | 74.2% |  |  |  |  |  | 
COc1c(C)c2c(c(O)c1C/C=C(\C)CCC(=O)OCCN1CCOCC1)C(=O)OC2 [Mycophenolate Mofetil] | 0.29 µM | 88.6% | < 1 µM |  | 90% | 43.8% |  |  |  |  |  | 
Vinorelbine Tartrate Hydrate |  |  |  |  |  |  | 0.788 | 0.86 µM | 0.472 | 0.256 | 3.2 µM | 
OCCN1CCN(CCCN2c3ccccc3Sc3ccc(C(F)(F)F)cc32)CC1 [Fluphenazine Hydrochloride] |  | 92% |  |  | 98.8% | 96.8% |  |  |  |  |  | 
Cl.Cl.OCCN1CCN(CCC=C2c3ccccc3Sc3ccc(C(F)(F)F)cc32)CC1 (mixture of isomers) [Flupentixol Dihydrochloride] |  |  |  |  |  |  | 0.744 |  | 0.660 | 0.959 |  | 
CN1[C@@H]2CC[C@H]1C[C@@H](OC(c1ccccc1)c1ccccc1)C2 [Benztropine Mesylate] |  | 94.3% |  |  | 63.3% | 89.9% |  |  |  |  |  | 
Fc1ccc([C@@H]2CCNC[C@H]2COc2ccc3c(c2)OCO3)cc1 [Paroxetine Hydrochloride Hemihydrate] | 1.4 µM | 92% | 9.3 µM | 7.4 µM | 82% | 96% |  |  |  |  |  | 
O=C1CCc2ccc(OCCCCN3CCN(c4cccc(Cl)c4Cl)CC3)cc2N1 [Aripiprazole] |  | 94.7% |  |  | 80.7% | 53% |  |  |  |  |  | 
OCCN1CCN(CC/C=C2/c3ccccc3Sc3ccc(C(F)(F)F)cc32)CC1 [Flupentixol Dihydrochloride] |  |  |  |  |  |  |  | 1.6 µM |  |  | 3.8 µM | 5.7 µM
O=c1[nH]c2ccccc2n1C1CCN(CCCC(c2ccc(F)cc2)c2ccc(F)cc2)CC1 [Pimozide] | 1.7 µM | 91% | 4.8 µM | 3.1 µM | 68.5% | 96.8% |  |  |  |  |  | 
CN[C@H]1CC[C@@H](c2ccc(Cl)c(Cl)c2)c2ccccc21 [Sertraline Hydrochloride] |  | 95% |  |  | 41.8% | 96.2% |  |  |  |  |  | 
Nc1ncn([C@@H]2O[C@H](CO)[C@@H](O)[C@H]2O)c(=O)n1 [Azacitidine] | 10 µM | 89.9% | 5 µM | 8.9 µM | 59.5% | 74.6% |  |  |  |  |  | 
Cc1nc(Nc2ncc(C(=O)Nc3c(C)cccc3Cl)s2)cc(N2CCN(CCO)CC2)n1 [Dasatinib] | 4.2 µM | 94.1% |  | 16 µM | 42.8% | 64.2% |  |  |  |  |  | 
